Data on 1 substance can be found in PMC9508239 (Nature Communications, 2022).

For one data set, the system named is IR F64A. Put plainly: Auto-phosphorylation of IR in 293FT cells expressing IR F64A. The following applies: 10 nM, 10 min. Format: cell-based, human. Here is the method:
(§1) For the activation assay, the short isoform of human IR in pCS2-MYC was used as described previously[20],[49]. Plasmid transfections into 293FT cells were performed with Lipofectamin^TM 2000 (Invitrogen).
(§2) The cells were incubated with the lysis buffer B [50 mM Hepes pH 7.4, 150 mM NaCl, 10% Glycerol, 1% Triton X-100, 1 mM EDTA, 100 mM sodium fluoride, 2 mM sodium orthovanadate, 20 mM sodium pyrophosphate, 0.5 mM dithiothreitol (DTT), 2 mM phenylmethylsulfonyl fluoride (PMSF)] supplemented with cOmplete Protease Inhibitor Cocktail (Roche), PhosSTOP (Sigma), and 25 U/ml turbo nuclease (Accelagen) on ice for 1 h. After centrifuging at 20,817×g at 4 °C for 10 min, the concentrations of cell lysate were measured using Micro BCA Protein Assay Kit (Thermo Scientific). About 50–60 μg total proteins were analyzed by SDS-PAGE and quantitative Western blotting. […] For quantitative western blots, anti-rabbit immunoglobulin G (IgG) (H + L) (WB, 1:5000; Dylight 800 conjugates, Cat. #5151) and anti-mouse IgG (H + L) (WB, 1:5000; Dylight 680 conjugates, Cat. #5470) (Cell Signaling) were used as secondary antibodies. […]

For the next data set, the system named is IR F497A. The data set can be described thus: Auto-phosphorylation of IR in 293FT cells expressing IR F497A. It counts as cell-based, human. As for the experimental part:
as §1, §2

The subject of a further data set is IR-D707A. The data set can be described thus: IR signaling (pY IR, pAKT, pERK) in IR-D707A MEFs. Format: cell-based, mouse. Here is the method:
(§3) IR^F/F mice (Jackson #006955[71]) were crossed with CAG-CRE/ERT mice (Jackson #004682) to generate IR^F/F; CRE-ERT mice. The IR^F/F; CRE-ERT mice were backcrossed nine generations to C57BL/6 (Jackson #000664). The MEFs from IR^F/F; CRE-ERT mice were isolated as described earlier with some modifications. E14.5 embryos were minced with sterile scalpels and incubated with 0.25% trypsin-EDTA for 10 min at 37 °C and a 5% CO2 incubator. Fresh 0.25% trypsin-EDTA was added. After 10 min incubation, cells were put into fresh DMEM containing supplemented 10% (v/v) FBS, 2 mM L-glutamine, 55 μM β-mercaptoethanol, and 1% penicillin/streptomycin, and then centrifuged at 290×g for 5 min. After the supernatant was removed, the cells were resuspended in the DMEM and incubated at 37 °C and 5% CO2 incubator. The medium was changed the next day to remove debris and floating cells.
Viral supernatants were collected at 2 days and 3 days after transfection, concentrated with a concentrator, and added to IR^F/F; CRE-ERT MEFs with 4 μg/ml of polybrene. Cells were selected with 2 μg/ml of puromycin 2 days after infection.
as §1
The cells were incubated with the lysis buffer B [50 mM Hepes pH 7.4, 150 mM NaCl, 10% Glycerol, 1% Triton X-100, 1 mM EDTA, 100 mM sodium fluoride, 2 mM sodium orthovanadate, 20 mM sodium pyrophosphate, 0.5 mM dithiothreitol (DTT), 2 mM phenylmethylsulfonyl fluoride (PMSF)] supplemented with cOmplete Protease Inhibitor Cocktail (Roche), PhosSTOP (Sigma), and 25 U/ml turbo nuclease (Accelagen) on ice for 1 h. After centrifuging at 20,817×g at 4 °C for 10 min, the concentrations of cell lysate were measured using Micro BCA Protein Assay Kit (Thermo Scientific). About 50–60 μg total proteins were analyzed by SDS-PAGE and quantitative Western blotting. The following antibodies were purchased from commercial sources: Anti-IR-pY1150/1151 (WB, 1:1000; 19H6; labeled as pY IR, Cat. #3024), anti-AKT (WB, 1:1000; 40D4, Cat. #2920), anti-pS473 AKT (WB, 1:1000; D9E, Cat. #4060), anti-ERK1/2 (WB, 1:1000; L34F12, Cat. #4696), anti-pERK1/2 (WB, […]; 197G2, Cat. #4377), anti-IRS1-pS616 (WB, 1:1000; C15H5, Cell Signaling, Cat. #3203); anti-IRS1 (WB, 1:1000; A301-158A, Bethyl Laboratory); anti-IR (WB, 1:500, CT-3, Santa Cruz; labeled as IR for primary hepatocytes and MEFs, Cat. #sc-57342); anti-IR (WB, 1:1000; EPR23566-103; labeled as IR for Fig. S10, ab278100, Abcam); anti-Myc (WB, 1:2000; 9E10, Cat. #11667149001, Roche; labeled as IR for 293FT cells). For quantitative western blots, anti-rabbit immunoglobulin G (IgG) (H + L) (WB, 1:5000; Dylight 800 conjugates, Cat. #5151) and anti-mouse IgG (H + L) (WB, 1:5000; Dylight 680 conjugates, Cat. #5470) (Cell Signaling) were used as secondary antibodies. The membranes were scanned with the Odyssey Infrared Imaging System (Li-COR, Lincoln, NE).

Another data set relates to endogenous murine IR. The data set can be described thus: IR signaling (pY IR, pAKT, pERK) in GFP MEFs, tamoxifen-inducible IR knockout (Fig. S8). It counts as cell-based, mouse. The following applies: tamoxifen treatment, high concentration of insulin. As for the experimental part:
as §3, with “After the supernatant was removed, the cells were resuspended in the DMEM and incubated at 37 °C and 5% CO2 incubator. The medium was changed the next day to remove debris and floating cells.” left out
The cells were incubated with the lysis buffer B [50 mM Hepes pH 7.4, 150 mM NaCl, 10% Glycerol, 1% Triton X-100, 1 mM EDTA, 100 mM sodium fluoride, 2 mM sodium orthovanadate, 20 mM sodium pyrophosphate, 0.5 mM dithiothreitol (DTT), 2 mM phenylmethylsulfonyl fluoride (PMSF)] supplemented with cOmplete Protease Inhibitor Cocktail (Roche), PhosSTOP (Sigma), and 25 U/ml turbo nuclease (Accelagen) on ice for 1 h. After centrifuging at 20,817×g at 4 °C for 10 min, the concentrations of cell lysate were measured using Micro BCA Protein Assay Kit (Thermo Scientific). About 50–60 μg total proteins were analyzed by SDS-PAGE and quantitative Western blotting. […]

In data set [1] the test system is IR. Put plainly: Insulin signaling in vivo, white adipose tissue (WAT). The following applies: mouse epididymal WAT, vs vehicle. As for the experimental part:
as §2
Two to three months old male mice were fasted overnight. […] After centrifuging at 20,817×g at 4 °C for 30 min, the concentrations of cell lysate were measured using Micro BCA Protein Assay Kit (Thermo Scientific). The lysates were then analyzed by quantitative western blotting.

In another data set the test system is SREBP1. Put plainly: Nuclear translocation of SREBP1 in primary mouse hepatocytes. Format: cell-based. As to conditions: 100 nM, 30 min. As for the experimental part: (§4) Primary hepatocytes were isolated from 2-month-old male mice with a standard two-step collagenase perfusion procedure as described earlier with some modifications[24],[48],[49]. […] After 1–2 s upon the appearance of white spots in the liver, we cut the portal vein with scissors to wash out blood, and then the liver was perfused with 30 ml of Liver Digest Medium (Thermo Scientific, Cat. #17703034). The dissected liver was gently washed with low-glucose DMEM and transferred to a sterile culture dish containing 15 ml Liver Digest Medium. The isolated liver cells were filtered through the 70 μm cell strainer into a 50 ml tube. After centrifuging at 50×g for 5 min at 4 °C, cells were washed with cold low-glucose DMEM three times. […] After 2 h, the medium was changed to serum-free low-glucose DMEM.
Primary hepatocytes were described in the primary hepatocyte isolation section. […] Cells were fixed with 4% paraformaldehyde for 10 min. The fixed cells were incubated with PBS for 30 min and 3% BSA in PBS with 0.1% Triton X-100 (0.1% PBST) for 1 h, and then treated with anti-SREBP1 antibodies (20B12, Millipore, Cat. #MABS1987, 1:200) in 3% BSA in 0.1% PBST at 4 °C overnight. After being washed, cells were incubated with secondary antibodies (Alexa Fluor 488 goat anti-rabbit, Invitrogen, Cat. #A11008, 1:200) for 1 h. […]

The test system of data set [2] is IR. Put plainly: IR signaling (pY IR, pAKT, pERK) in primary mouse hepatocytes (Fig. S9). It counts as cell-based. Here is the method: as §4, §2

On to “insulin: native IR ligand used as comparator; Humulin in the in vivo tests”, for which the IR activation entry in the data set with IR F64A is recorded as “defective insulin-dependent activation”. For the same substance, the IR activation result with IR F497A is recorded as “can be activated by insulin but with lesser efficiency than IR WT”. Besides, in the data set with IR-D707A, the “phosphorylation of AKT” value is “greatly reduced”, the “phosphorylation of ERK” value is “greatly reduced” and the “phosphorylation of IR” value is “remarkedly reduced”. For the same substance, in the data set with IR-D707A (high concentration of insulin), the pAKT entry is “significantly increased pAKT and pERK”; the pERK entry is “significantly increased pAKT and pERK”. Further, the “downstream signaling through residual IR” value with endogenous murine IR was “could activate downstream signaling”. Also, in the data set on IR [1], the “pAKT, WAT” value is “significantly increased pAKT levels” and the “pERK, WAT” value is on record as “neither insulin nor S597 had a statistically significant effect on pERK levels”. In the data set on SREBP1, the “nuclear translocation of SREBP1” value is “stimulated to the same level by insulin and S597”. Moreover, in the data set with IR [2], the “phosphorylation of AKT, primary hepatocytes” value was “increased the levels of pY IR, pAKT, and pERK similarly”; the “phosphorylation of ERK, primary hepatocytes” value was “increased the levels of pY IR, pAKT, and pERK similarly”; the “phosphorylation of IR, primary hepatocytes” value was “increased the levels of pY IR, pAKT, and pERK similarly”.
